The target in the test is T1, recombinant human p65 protein (r-p65) (Homo sapiens, UniProt Q04206).
T1 construct: control-P at varying concentrations was probed with full-length r-p65-DDK; purchased OriGene Technologies Inc., Rockville, Md
The test can be described thus: GILZ:p65 direct binding and kinetics by modified ELISA. For orientation: ELISA stands for enzyme-linked immunosorbent assay.

T1 sequence (Q04206 whole entry): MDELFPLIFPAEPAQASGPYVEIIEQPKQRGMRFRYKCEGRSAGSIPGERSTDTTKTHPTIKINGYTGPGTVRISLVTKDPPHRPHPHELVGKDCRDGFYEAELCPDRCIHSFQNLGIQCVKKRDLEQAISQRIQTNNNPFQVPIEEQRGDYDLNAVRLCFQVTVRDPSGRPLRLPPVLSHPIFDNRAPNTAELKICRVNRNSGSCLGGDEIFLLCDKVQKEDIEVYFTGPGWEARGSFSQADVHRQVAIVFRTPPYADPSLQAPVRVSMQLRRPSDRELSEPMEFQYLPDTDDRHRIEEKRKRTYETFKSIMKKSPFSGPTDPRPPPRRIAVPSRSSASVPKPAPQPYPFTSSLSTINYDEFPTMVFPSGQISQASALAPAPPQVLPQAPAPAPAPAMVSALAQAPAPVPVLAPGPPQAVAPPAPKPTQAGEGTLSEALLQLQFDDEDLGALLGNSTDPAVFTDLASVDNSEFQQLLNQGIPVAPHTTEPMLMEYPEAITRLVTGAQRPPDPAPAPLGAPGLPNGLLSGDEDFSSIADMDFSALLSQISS
Method: To detect direct interaction, ELISA plates were coated with increasing concentrations of the GILZ protein and probed with increasing concentrations of the p65 protein followed by detection with anti-human GILZ mAb. To detect binding of cellular GILZ and p65, ELISA plates were coated with the p65 protein (20 ng), and probed with the cytoplasmic fraction from T cells. Binding of the plate bound p65 with the cytoplasmic GILZ protein was detected with anti-human GILZ mAb. Alternatively, wells coated with the GILZ-GST protein (20 ng) were probed with the nuclear fractions from T cells and the GILZ:nuclear p65 binding was detected with anti-human p65 mAb. The bound complex was detected with TNB at absorbance of 450 nm.
Binding of the plate-bound r-p65 with cytoplasmic GILZ and the plate-bound GILZ with nuclear p65 was detected with anti-GILZ mAb or anti-p65 mAb, respectively, followed by trinitrobenzene substrate. […] Absorbance at 650 nm was measured between 0 and 300 s with a mixing time of 0.30 s and a 5-s interval between readings.

Regarding Ac-CLSPEEPAPESPQVPEAPGGSAV-NH2 [GILZ-P], the “time at which maximum absorbance was reached in binding with r-p65” value worked out at 38 s. For the same substance, the “adjusted velocity of the interaction with r-p65” value (at 1:4 molar concentrations) turned out to be 25 s⁻¹. For the setting “varying coating concentrations, 40 μM r-p65”, the “p65 binding (absorbance) of plate-bound agent probed with full-length r-p65” value is listed as “decreased with decreasing concentrations”.
